Source: a compilation of properties of binary mixtures (doi:10.1021/acs.jced.0c00426)

Assay: xn = mol fraction of the nth substance listed
Details: 101.3 kPa

CNc1ccccc1 + CCCCCCCCn1cc[n+](C)c1.F[B-](F)(F)F
x2 = 0
Details | speed of sound [m/s]
298.15 K | 1565
303.15 K | 1546
308.15 K | 1527
313.15 K | 1508
318.15 K | 1489
323.15 K | 1471

CNc1ccccc1 + CCCCCC[n+]1ccn(C)c1.F[B-](F)(F)F
speed of sound [m/s]
Details | x2 = 0 | x2 = 0.1058 | x2 = 0.2201 | x2 = 0.3079 | x2 = 0.395 | x2 = 0.501 | x2 = 0.6034 | x2 = 0.7024 | x2 = 0.804 | x2 = 0.8984
293.15 K | 1584 | – | 1589 | 1580 | 1569 | 1557 | – | 1538 | 1531 | 1526
298.15 K | 1565 | 1578 | 1577 | 1569 | – | 1549 | 1539 | 1532 | 1526 | 1523
303.15 K | 1546 | – | 1560 | 1554 | 1545 | 1535 | – | 1519 | 1513 | 1510
308.15 K | – | 1545 | 1544 | – | – | – | 1512 | 1505 | 1501 | 1497
313.15 K | 1508 | 1527 | 1528 | 1523 | 1516 | 1507 | 1499 | 1493 | 1488 | –
318.15 K | 1489 | – | 1511 | 1507 | 1501 | – | 1486 | 1480 | 1476 | 1472
323.15 K | – | 1490 | 1495 | 1492 | 1486 | 1479 | 1473 | 1467 | 1464 | 1460

CNc1ccccc1 + CCCC[n+]1ccn(C)c1.F[B-](F)(F)F
speed of sound [m/s]
Details | x2 = 0 | x2 = 0.0973 | x2 = 0.184 | x2 = 0.2982 | x2 = 0.3909 | x2 = 0.5025 | x2 = 0.5928 | x2 = 0.7005 | x2 = 0.7963 | x2 = 0.901
293.15 K | 1584 | 1598 | 1602 | – | – | 1594 | – | 1586 | – | 1580
298.15 K | – | – | 1587 | 1590 | 1586 | 1580 | 1577 | 1573 | 1571 | 1569
303.15 K | 1546 | 1564 | 1572 | 1575 | 1572 | – | – | – | – | 1558
308.15 K | 1527 | – | 1555 | 1560 | – | 1554 | – | 1550 | – | 1547
313.15 K | 1508 | 1532 | 1540 | 1544 | 1544 | 1543 | 1541 | 1539 | – | 1536
318.15 K | – | 1515 | 1524 | 1529 | 1530 | – | 1528 | 1527 | 1526 | 1525
323.15 K | 1471 | 1498 | 1508 | 1514 | – | 1516 | 1515 | 1516 | 1515 | 1516

CCCCCCCCn1cc[n+](C)c1.F[B-](F)(F)F + CNc1ccccc1
speed of sound [m/s]
Details | x1 = 0.1032 | x1 = 0.2037 | x1 = 0.285 | x1 = 0.383 | x1 = 0.4978 | x1 = 0.5939 | x1 = 0.7016 | x1 = 0.7942 | x1 = 0.9002 | x1 = 1
293.15 K | 1582 | 1571 | – | 1549 | 1536 | 1526 | – | 1509 | 1502 | 1499
298.15 K | – | 1555 | 1545 | 1533 | 1521 | 1512 | 1502 | 1495 | 1488 | 1485
303.15 K | 1548 | 1538 | 1529 | 1518 | 1507 | 1499 | 1489 | – | 1475 | 1472
308.15 K | 1531 | 1522 | 1513 | 1503 | – | – | – | 1469 | 1462 | –
313.15 K | 1514 | – | 1498 | 1489 | 1479 | – | 1463 | 1456 | 1450 | 1446
318.15 K | 1496 | 1491 | 1483 | – | 1465 | 1458 | 1451 | 1444 | 1438 | 1433
323.15 K | 1479 | – | 1468 | 1460 | 1451 | 1444 | – | 1431 | 1426 | 1421

CCCCCC[n+]1ccn(C)c1.F[B-](F)(F)F + CNc1ccccc1
x1 = 1
Details | speed of sound [m/s]
298.15 K | 1519
303.15 K | 1507
308.15 K | 1494
313.15 K | 1482
318.15 K | 1470
323.15 K | 1458

CCCC[n+]1ccn(C)c1.F[B-](F)(F)F + CNc1ccccc1
x1 = 1
Details | speed of sound [m/s]
303.15 K | 1555
313.15 K | 1532
318.15 K | 1521
323.15 K | 1511
